Laboratory results from patent US10611772B2, “Crystalline form of Ribociclib succinate” (Apotex Inc., priority 2018, dated 2020).

Experiments:
[1] = Comparative intrinsic dissolution testing (Wood apparatus); assay type: physicochemical; conditions: 400 mg sample compressed at 1.5 metric tons for 1 minute, 900 mL 0.01 N HCl buffer, 75 rpm
Description: Intrinsic dissolution rate (IDR) measurements were performed using a Wood apparatus. Samples were prepared by compressing 400 mg sample at 1.5 metric tons for 1 minute. A dissolution medium consisting of 900 mL 0.01 N HCl buffer, and rotation speed of 75 rpm, was used for each experiment.

[2] = cited from earlier work; for Hygroscopicity: as reported in the prior art or the CHMP report
[3] = CHMP Assessment Report for KISQALI; anhydrous form; cited from earlier work

| SMILES | Intrinsic Dissolution Rate [1] | Form conversion upon exposure to high humidity levels ([2]; WO 2012/064805 A1) | Hygroscopicity [2] | BCS Class [3] | Solubility (BCS assessment) [3] |
| --- | --- | --- | --- | --- | --- |
| CN(C)C(=O)c1cc2cnc(Nc3ccc(N4CCNCC4)cn3)nc2n1C1CCCC1.O=C(O)CCC(=O)O [Ribociclib succinate non-hydrate form] | 1.9520 mg min^−1 cm^−2 | converts to the hydrate form | hygroscopic | – | – |
| CN(C)C(=O)c1cc2cnc(Nc3ccc(N4CCNCC4)cn3)nc2n1C1CCCC1 [Ribociclib succinate, 7-cyclopentyl-N,N-dimethyl-2-{[5-(piperazin-1-yl)pyridin-2-yl]amino}-7H-pyrrolo[2,3-d]pyrimidine-6-carboxamide] | – | – | exhibits hygroscopicity | Class IV | low solubility |
